Data on one compound can be found in publication PMC11555401 (2024).

Assay [1] deals with DEHP aptamer-Seq.10 (FAM-labeled) (DNA, aptamer) TTCCGGGCATACGTATCGAATGTTGTGAGCCGTGGGCTGC
Briefly: graphene oxide fluorescence assay. Particulars: 37 °C, 1.5 h incubation; graphene oxide:ssDNA mass ratio 100:1; nonlinear regression.

Assay [2] concerns aptamer-Seq.10-Cy5 (csa-DEHP aptamer) (DNA, aptamer) TTCCGGGCATACGTATCGAATGTTGTGAGCCGTGGGCTGC
In words: 1H NMR. Particulars: complex formed in deionized water at 4 °C overnight, dialyzed; amino signals shift 1.9 to 2.3 ppm.

`CCCCC(CC)COC(=O)c1ccccc1C(=O)OCC(CC)CCCC` (centres unmarked): the Kd in assay [1] was 70 nM. Moreover, the binding entry in assay [2] is given as “yes”.

The term Kd denotes the constant that tells how readily two partners part at equilibrium.
